According to ChEMBL document CHEMBL1201862, “PubChem BioAssay data set” (2004):
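Exposure lasted 48 hours, with cells grown in 96-well plates and compounds tested at five concentrations. GI50 marks 50% less growth.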 Active and inactive are the calls of the source. No stated cut-off is given here; in the data, active = GI50 up to about 1.1 µM and inactive = higher.

Experiments:
Assay in all cases: DTP human tumour cell line panel, 48 h
SK-MEL-5 = tested on: SK-MEL-5
IGROV-1 = tested on: IGROV-1
M14 = tested on: M14
K562 = tested on: K562
UO-31 = tested on: UO-31
KM12 = tested on: KM12
OVCAR-3 = tested on: OVCAR-3
SK-OV-3 = tested on: SK-OV-3
CAKI-1 = tested on: CAKI-1
A549 = tested on: A549
SW-620 = tested on: SW-620
CCRF-CEM = tested on: CCRF-CEM
BT-549 = tested on: BT-549
COLO 205 = tested on: COLO 205
RXF 393 = tested on: RXF 393
SN12C = tested on: SN12C
MDA-N = tested on: MDA-N
UACC-257 = tested on: UACC-257
SR = tested on: SR
NCI-H226 = tested on: NCI-H226

Row | Structure (SMILES) | GI50 (SK-MEL-5) | GI50 (IGROV-1) | GI50 (M14) | GI50 (K562) | GI50 (UO-31) | GI50 (KM12) | GI50 (OVCAR-3) | GI50 (SK-OV-3) | GI50 (CAKI-1) | GI50 (A549) | GI50 (SW-620) | GI50 (CCRF-CEM) | GI50 (BT-549) | GI50 (COLO 205) | GI50 (RXF 393) | GI50 (SN12C) | GI50 (MDA-N) | GI50 (UACC-257) | GI50 (SR) | GI50 (NCI-H226)
1 | Cc1nc2nc3c(ncn3COCCO)c(O)n2c1C(c1ccccc1)(c1ccccc1)c1ccccc1 | 15.4 µM (inactive) | 14 µM (inactive) | 16.3 µM (inactive) | 9.25 µM (inactive) | 30.3 µM (inactive) | 12.2 µM (inactive) | 2.96 µM (inactive) | 15.9 µM (inactive) | 60 µM (inactive) | 18.5 µM (inactive) | 19.5 µM (inactive) | 13.2 µM (inactive) | 0.6 µM (active) | 14.6 µM (inactive) | 12.8 µM (inactive) | 16.5 µM (inactive) | 13.5 µM (inactive) | 14.1 µM (inactive) | – | –
2 | CCC[C@H]1O[C@@H]2CC(=O)O[C@@H]2C2=C1C(=O)C=CC2=O | 20.1 µM (inactive) | 18 µM (inactive) | 18.7 µM (inactive) | 5.09 µM (inactive) | 18.5 µM (inactive) | 23.6 µM (inactive) | 14.1 µM (inactive) | > 39.9 µM (inactive) | 19.2 µM (inactive) | 32.6 µM (inactive) | 11.2 µM (inactive) | 3.92 µM (inactive) | – | 3.38 µM (inactive) | 16 µM (inactive) | 18.1 µM (inactive) | – | 18.9 µM (inactive) | 16.7 µM (inactive) | 13.7 µM (inactive)
3 | C=CCCCN1C(=O)C2C3c4ccccc4C(C=O)(c4ccccc43)C2C1=O (stereo unspecified) | 11.3 µM (inactive) | 13.6 µM (inactive) | – | 3.62 µM (inactive) | 10.7 µM (inactive) | 4.02 µM (inactive) | 9.02 µM (inactive) | 18.2 µM (inactive) | 16 µM (inactive) | 15.2 µM (inactive) | 13 µM (inactive) | 3.58 µM (inactive) | – | 12 µM (inactive) | – | 7.93 µM (inactive) | 13.6 µM (inactive) | 13 µM (inactive) | 4.79 µM (inactive) | –
4 | COCCN1C2=CCCCC2=Nc2c(N)nc(N)nc21 | > 100 µM (inactive) | > 100 µM (inactive) | > 100 µM (inactive) | > 100 µM (inactive) | > 100 µM (inactive) | > 100 µM (inactive) | 38 µM (inactive) | > 100 µM (inactive) | > 100 µM (inactive) | > 100 µM (inactive) | – | > 100 µM (inactive) | – | > 100 µM (inactive) | > 100 µM (inactive) | > 100 µM (inactive) | – | > 100 µM (inactive) | > 100 µM (inactive) | > 100 µM (inactive)
5 | COC(=O)C1Cc2c([nH]c3ccccc23)C(c2ccccc2O)N1Cc1ccccc1 (stereo unspecified) | 27.2 µM (inactive) | 25.5 µM (inactive) | 38.4 µM (inactive) | 37.5 µM (inactive) | 31 µM (inactive) | > 31.6 µM (inactive) | 27.7 µM (inactive) | 30.8 µM (inactive) | 22.2 µM (inactive) | 32 µM (inactive) | 39.5 µM (inactive) | > 46.5 µM (inactive) | – | 41.7 µM (inactive) | 20.8 µM (inactive) | 36 µM (inactive) | – | 33.7 µM (inactive) | 28.4 µM (inactive) | 35.7 µM (inactive)
6 | CC(=O)C1Cn2c(nc3ccccc32)C[Se]1 (stereo unspecified) | 2 µM (inactive) | 2.22 µM (inactive) | 2.3 µM (inactive) | 4.23 µM (inactive) | 3.1 µM (inactive) | 3.4 µM (inactive) | 2.22 µM (inactive) | 19.5 µM (inactive) | 2.19 µM (inactive) | 19.8 µM (inactive) | 5.28 µM (inactive) | 3.49 µM (inactive) | – | 16.5 µM (inactive) | 2.34 µM (inactive) | 4.43 µM (inactive) | – | 2.48 µM (inactive) | 3.1 µM (inactive) | 3.72 µM (inactive)
7 | C=C[C@@H]1C(CO)=CCC2[C@H]1CCC1C(C)(C)C(=O)CC[C@]21C (stereo partly specified) | > 100 µM (inactive) | > 100 µM (inactive) | > 100 µM (inactive) | > 100 µM (inactive) | > 100 µM (inactive) | > 100 µM (inactive) | > 100 µM (inactive) | > 100 µM (inactive) | > 100 µM (inactive) | > 100 µM (inactive) | > 100 µM (inactive) | > 100 µM (inactive) | – | > 100 µM (inactive) | > 100 µM (inactive) | > 100 µM (inactive) | > 100 µM (inactive) | > 100 µM (inactive) | > 100 µM (inactive) | > 100 µM (inactive)
8 | Cc1cccc2c(NCCN(C)C)c3cccc(C(=O)NCCN(C)C)c3nc12 | 0.157 µM (active) | 0.171 µM (active) | 0.578 µM (active) | 0.0278 µM (active) | 0.326 µM (active) | 0.0692 µM (active) | 0.31 µM (active) | 0.226 µM (active) | 0.187 µM (active) | 0.107 µM (active) | 0.0276 µM (active) | 0.156 µM (active) | – | 0.173 µM (active) | 0.475 µM (active) | 0.0603 µM (active) | 0.265 µM (active) | 0.693 µM (active) | 0.0281 µM (active) | 0.728 µM (active)
9 | Cn1c2ccccc2n2c(=O)c3cccnc3c(C#N)c12 | 9.51 µM (inactive) | – | – | – | – | > 100 µM (inactive) | > 100 µM (inactive) | > 100 µM (inactive) | > 100 µM (inactive) | – | 19.6 µM (inactive) | – | 17.5 µM (inactive) | 24.7 µM (inactive) | > 100 µM (inactive) | 25.5 µM (inactive) | > 100 µM (inactive) | > 100 µM (inactive) | – | 4.42 µM (inactive)
10 | C=C1C(=O)OC2/C=C(\C)C3OC3/C=C(/C(=O)OC)C(O)C(OC(=O)C3(C)OC3C)C12 (stereo unspecified) | 1.31 µM (inactive) | 2.3 µM (inactive) | 1.9 µM (inactive) | 0.685 µM (active) | 11.2 µM (inactive) | 2.95 µM (inactive) | 2.42 µM (inactive) | 13.4 µM (inactive) | 1.08 µM (active) | 15.3 µM (inactive) | 0.959 µM (active) | 0.397 µM (active) | – | 1.27 µM (inactive) | 1.02 µM (active) | 2.39 µM (inactive) | – | 1.53 µM (inactive) | 0.566 µM (active) | 15.1 µM (inactive)
11 | Cn1c2c(c3ccccc31)CC(=S)N1CCCC(CC2O)C1 (stereo unspecified) | > 100 µM (inactive) | – | – | > 100 µM (inactive) | 45.8 µM (inactive) | > 100 µM (inactive) | – | > 100 µM (inactive) | > 100 µM (inactive) | > 100 µM (inactive) | > 100 µM (inactive) | – | > 100 µM (inactive) | > 100 µM (inactive) | – | > 100 µM (inactive) | > 100 µM (inactive) | > 100 µM (inactive) | – | > 100 µM (inactive)
12 | O=C1CN2C(c3ccccc3)=NN(c3ccc([N+](=O)[O-])cc3)C2(c2ccccc2)c2cc(Cl)ccc2N1CC1CC1 (stereo unspecified) | > 100 µM (inactive) | > 100 µM (inactive) | > 100 µM (inactive) | > 100 µM (inactive) | > 100 µM (inactive) | > 100 µM (inactive) | > 100 µM (inactive) | > 100 µM (inactive) | > 100 µM (inactive) | > 100 µM (inactive) | > 100 µM (inactive) | > 100 µM (inactive) | > 100 µM (inactive) | > 100 µM (inactive) | > 100 µM (inactive) | > 100 µM (inactive) | – | > 100 µM (inactive) | > 100 µM (inactive) | > 100 µM (inactive)
13 | C/C=C1\CNC1C(=O)O (stereo unspecified) | > 100 µM (inactive) | > 100 µM (inactive) | – | > 100 µM (inactive) | > 100 µM (inactive) | – | > 100 µM (inactive) | > 100 µM (inactive) | > 100 µM (inactive) | > 100 µM (inactive) | > 100 µM (inactive) | > 100 µM (inactive) | > 100 µM (inactive) | > 100 µM (inactive) | – | > 100 µM (inactive) | > 100 µM (inactive) | > 100 µM (inactive) | – | –
14 | NC(=O)N/N=C\CC(O)(C(F)(F)Cl)C(F)(F)Cl | > 10 µM (inactive) | > 10 µM (inactive) | > 10 µM (inactive) | > 10 µM (inactive) | > 10 µM (inactive) | > 10 µM (inactive) | > 10 µM (inactive) | > 10 µM (inactive) | > 10 µM (inactive) | > 10 µM (inactive) | > 10 µM (inactive) | > 10 µM (inactive) | – | > 10 µM (inactive) | > 10 µM (inactive) | > 10 µM (inactive) | > 10 µM (inactive) | > 10 µM (inactive) | > 10 µM (inactive) | > 10 µM (inactive)
15 | c1cc2[se][se]c3c4cccc5[se][se]c(c(c1)c23)c54 | > 100 µM (inactive) | > 100 µM (inactive) | > 100 µM (inactive) | > 100 µM (inactive) | > 100 µM (inactive) | > 100 µM (inactive) | > 100 µM (inactive) | > 100 µM (inactive) | > 100 µM (inactive) | > 100 µM (inactive) | > 100 µM (inactive) | > 100 µM (inactive) | – | > 100 µM (inactive) | > 100 µM (inactive) | > 100 µM (inactive) | – | > 100 µM (inactive) | > 100 µM (inactive) | > 100 µM (inactive)
16 | C=C(C)[C@H]1CC[C@@]23O[C@@H]2[C@@H](C[C@@]2(C)CC(=O)[C@H](CC(=O)C1)O2)OC(=O)[C@@]12CC[C@H](C(=C)C)CC(=O)C[C@H]4O[C@](C)(CC4=O)C[C@@H](OC3=O)[C@@H]1O2 [SINGARDIN] | 74.5 µM (inactive) | 52.8 µM (inactive) | > 100 µM (inactive) | > 100 µM (inactive) | > 100 µM (inactive) | 52.5 µM (inactive) | > 100 µM (inactive) | > 100 µM (inactive) | > 100 µM (inactive) | > 100 µM (inactive) | – | 91.8 µM (inactive) | – | > 100 µM (inactive) | > 100 µM (inactive) | > 100 µM (inactive) | > 100 µM (inactive) | > 100 µM (inactive) | – | > 100 µM (inactive)
